Patent publication US4405609A, “Combination and method for increasing feed utilization efficiency in ruminants” (Eli Lilly and Company, priority 1982, dated 1983)

Tests used:
feeder calves = test: in vivo evaluation of monensin and actaplanin in feeder calves on high-grain ration; conditions: 30 grams per ton of each agent in feed
Description: For example, in a typical in vivo evaluation of the combination of monensin and actaplanin, feeder calves were fed a high-grain ration such as that recited above. Fifteen control animals received the feed ration with no feed efficiency enhancer additive. Another group of fifteen calves received the feed ration containing monensin at 30 grams per ton, while a third group of fifteen animals received the feed ration with actaplanin at 30 grams per ton. A combination of 30 grams per ton of monensin and 30 grams per ton of actaplanin was administered as a feed additive to the ration consumed by a fourth group of fifteen test animals. […] The feed efficiency of such control group, calculated as the pounds of feed consumption required for one pound of animal weight gain, was 13.49.

rumen fluid = test: in vitro rumen fluid fermentor assay of propionate production; format: cell-based, steers; conditions: Actaplanin 0 PPM, ± SD
Description: Rumen fluid was obtained from steers which had surgically-installed fistula openings into the rumen. The steers were maintained on a high-grain ration such as the one described above.
A sample of rumen fluid was strained through four layers of cheese cloth and the eluate was collected in vacuum bottles. The particulate matter retained by the cheese cloth was resuspended in enough physiological buffer to return it to the original volume of the rumen fluid, and the eluate was strained again. The buffer utilized is described by Cheng et al., J. Dairy Sci., 38, 1225 (1955).
The two eluates were combined in a separatory funnel and allowed to stand until any remaining particulate matter separated to the top. The clear liquid layer then was removed, diluted with an equal volume of the above-mentioned buffer, and the pH of the solution was adjusted to 7.0.
Fermenter flasks were then changed with the rumen liquor thus prepared. Two fermentor flasks were used per each treatment group. The fermentor flasks were allowed to stand for four days for equilibration, and then measurements of proprionate production were made daily for six days in order to establish a control. Measurements were made by gas chromatographic methods. The fermenter flasks were then fed 20 grams per day of a finely ground ration composed of 20 percent high concentrate ration and 80 percent alfalfa hay. The individual feed efficiency enhancers, and the composition of such enhancers provided by this invention, were added to the feed and dried thereon prior to introduction of the feed ration into the fermentor flasks. The feed ration was introduced into the flasks approximately two times each day. After the initial administration of active ingredient, two days were allowed for reequilibration, and then the volatile fatty acid (VFA) production in each flask was monitored by gas chromatography for five days.

[1] = test system: Hereford crossbred steers; test: 140-day monensin/actaplanin feed study, corn silage diet; format: in vivo
Protocol: The animals were divided into a control group and into eleven test groups. All animals were fed a corn silage diet ad libitum once daily throughout the 140-day study, plus two pounds per head per day of the following cattle supplement:
Test compounds were formulated as a premix with 50 percent by weight of ground corn cobs and 48 percent by weight of ground corn. The premixes were added to the corn silage feed rations in amounts necessary to provide the desired doses of active ingredients to the test animals. The data are presented as the average for the entire group of animals receiving a particular dose of active agent.
In the foregoing table, the Feed Efficiency value is calculated by dividing the average amount of feed consumed (pounds of dry matter intake) by the average daily gain in weight (in pounds). Ideally, the animals will gain more weight on less feed intake. Accordingly, the most improvement in feed utilization efficiency is represented by smaller numbers. […] The optimum in this experiment was 10 g./T. of monensin and 40 g./T. of actaplanin which produced a 13.5% improvement in feed efficiency over untreated controls.

[2] = test system: Hereford crossbred steers; test: 154-day trial of monensin (30 g./T.) with actaplanin; format: in vivo
Description: In another study, two hundred Hereford crossbred steers averaging about 565 pounds were employed in a 154-day trial to determine the efficacy of combinations of monensin (at 30 g./T.) and actaplanin (at 20 g./T., 40 g./T. and 60 g./T.). The steers were fed a corn silage or corn-soya-cob roughage diet ad libitum once a day, together with a cattle supplement. The animals were divided into five treatment groups of forty steers each. These treatment groups were maintained in open pens; five animals per pen so that each treatment group comprised eight pens. Individual treatments were then assigned at random to each of the eight pens so that each treatment was replicated […] within each ration group.

steers = test: further analysis of feed efficiency data: expected versus observed change; format: in vivo; conditions: for Feed efficiency (feed to gain ratio): actaplanin 0
Description: When the components are utilized in amounts that are about their respective optimal dose levels when used alone, the combination causes an unexpected increase in feed utilization efficiency, which is believed the result of continued unexpected interaction. The results of this further analysis of data is presented below:
In the foregoing table, Δ is the change in feed efficiency of the treated group over the nontreated group. […] The change in efficiency is thus 0.14. The term "EΔ" is the change in efficiency expected with a combination, and is arrived at by adding the Δ values of the individual components at the appropriate dose levels. The term "OΔ" is the change in efficiency over nontreated controls actually observed with animals receiving the combination.

ruminants = conditions: Raun et al., J. Ani. Sci. 43, 670 (1976); cited from earlier work
[3] = test system: Hereford crossbred steers; test: 140-day narasin/actaplanin feed study; format: in vivo
Description: Another study was designed to show the unexpected interaction of the polyether narasin in combination with actaplanin. Two hundred forty Hereford crossbred steers averaging about 700 pounds and about 18 months of age were employed. The animals were fed corn silage and high moisture corn, plus two pounds per head per day of the following cattle supplement:
The treatments comprised three dose levels of narasin (0, 4 and 12 g./T.) and four dose levels of actaplanin (0, 10, 20 and 40 g./T.). The animals were randomly assigned to four blocks of twelve partially sheltered pens, each with five animals per pen. The treatments were allotted at random within the four 12-pen blocks such that each treatment was represented in each block. Each of the twelve treatments was replicated four times.

[4] = monensin 10, actaplanin 0 grams/Ton
[5] = monensin 30, actaplanin 0 grams/Ton

For monensin, the “Average Daily Weight Gain” value (feeder calves) was 1.42 pounds, the “feed efficiency (pounds of feed consumption required for one pound of animal weight gain)” value (feeder calves) was 12.05 and the “Propionate Production” value (rumen fluid; Monensin 0.5 PPM) was 14.2 ± 1.7 mM/24 hours. For the same compound, the “Propionate Production” value (rumen fluid; Monensin 3 PPM) was 18.4 ± 3.2 mM/24 hours, the “Average Daily Dry Matter Intake” value [1, 4] was 13.54 lbs and the “Average Daily Dry Matter Intake % change from control” value [1, 4] was “+9.6%”. The “Average Daily Weight Gain” value [1, 4] was 2.45 lbs, the “Average Daily Weight Gain % change over control” value [1, 4] was “+9.9%” and the “Feed Efficiency” value [1, 4] was 5.52. The “Feed Efficiency % change from control” value [1, 4] was -0.3%, the “Average Daily Dry Matter Intake” value [1, 5] was 12.94 lbs and the “Average Daily Dry Matter Intake % change from control” value [1, 5] was “+4.8%”. For the same compound, the “Average Daily Weight Gain” value [1, 5] was 2.39 lbs, the “Average Daily Weight Gain % change over control” value [1, 5] was “+7.2%” and the “Feed Efficiency” value [1, 5] was 5.42. For the same compound, the “Feed Efficiency % change from control” value [1, 5] was -2.2%, the “Average Daily Dry Matter Intake” value [2, 5] was 16.79 lbs and the “Average Daily Weight Gain” value [2, 5] was 2.41 lbs. The “Feed Efficiency” value [2, 5] was 7.01, the “increase in feed efficiency versus control” value ([2]; monensin alone (30 g./T.)) was 6.4% and the “Δ, change in feed efficiency of the treated group over the nontreated group” value (steers; monensin 10 g./T. alone) was 0.14. The “Feed efficiency (feed to gain ratio)” value (steers; monensin 10 g./T.) was 5.95, the “Δ, change in feed efficiency of the treated group over the nontreated group” value (steers; monensin 30 g./T. alone) was 0.39 and the “Feed efficiency (feed to gain ratio)” value (steers; monensin 30 g./T.) was 5.70. The “dosage level of maximal improvement in feed efficiency” value (ruminants) was “about 33 ppm” and the “dose level of maximal improvement in feed efficiency” value (ruminants) was “about 30 grams per ton of feed”.
With CC[C@@H](C(=O)O)[C@@H]1O[C@@H]([C@@H](C)[C@H](O)[C@H](C)C(=O)[C@H](CC)[C@H]2O[C@]3(C=C[C@@H](O)[C@]4(CC[C@@](C)([C@H]5CC[C@](O)(CC)[C@H](C)O5)O4)O3)[C@H](C)C[C@@H]2C)[C@@H](C)C[C@@H]1C [narasin] the “Average Daily Dry Matter Intake” value ([3]; narasin 4, actaplanin 0 g./T.) was 16.41 Pounds, the “Average Daily Weight Gain” value ([3]; narasin 4, actaplanin 0 g./T.) was 2.53 Pounds and the “Average Feed Efficiency” value ([3]; narasin 4, actaplanin 0 g./T.) was 6.46. For the same compound, the “Average Daily Dry Matter Intake” value ([3]; narasin 12, actaplanin 0 g./T.) was 15.52 Pounds, the “Average Daily Weight Gain” value ([3]; narasin 12, actaplanin 0 g./T.) was 2.52 Pounds and the “Average Feed Efficiency” value ([3]; narasin 12, actaplanin 0 g./T.) was 6.18. The “decrease in feed intake versus untreated controls” value ([3]; narasin alone at 12 g./T.) was 7.2%.
